Values quoted from earlier work, collected in PMC8352984, “Estrogen mediates sex differences in preoptic neuropeptide and pituitary hormone production in medaka” (Communications Biology, 2021).

Assays:
[1] = test system: Fshb expression, gonadotrophs; conditions: dispersed rat pituitary cells; cited from earlier work
Excerpt: (§1) Contrary to pomc, fshb expression was female-biased and repressed by Pacap and Vip in a female-specific manner. […] Possibly, Pacap may have a similar mechanism of action in medaka. In medaka, however, the inhibitory effect on fshb is assumed to be primarily driven ...

[2] = test system: luteinizing hormone release via Adcyap1r1; design: method as in PMID 10949084; conditions: goldfish and rat; cited from earlier work
Excerpt: as §1

What does the source list for “Pituitary adenylate cyclase-activating polypeptide [Pacap]”?
fshb expression (in words) [1]: acts directly on gonadotrophs to inhibit Fshb expression; release of luteinizing hormone (in words) [2]: directly stimulates the release of luteinizing hormone via Adcyap1r1
